Assays:
[1] = tested on: IL-12 activation of STAT4 in NK-92 cells; experiment: IL-12 activation of STAT4 in NK-92 cells using MSD as readout; format: cell-based; conditions: Homo sapiens, NK92; NK-92 cells, rhIL-12 25 ng/mL, MSD readout; read-out: IL12 pSTAT4 IC50
Experimental: IL-2 is added freshly to the medium with each medium refreshment step. Cells are cultured in a humidified incubator at 37° C. 5% CO2.
NK-92 cells are pre-incubated with test compounds or vehicle for 30 min at 37° C. 5% CO2. […] NK-92 cells are triggered with rhIL-12 for 45 min at 37° C. 5% CO2.
After 45 min of cytokine stimulation the cells are lysed by addition of 50 μL ice-cold lysis buffer (supplemented with the MSD kit). Plates are frozen at −80° C. for minimal 1 hour to lyse the cells completely. After thawing the levels of phospho-STAT4 are quantified using the Phospho-STAT4 (Tyr693) kit (MSD, Catalogue number K150PAD-2) according to the manufacturer's instructions. Electroluminescent signal is measured on the MSD reader.
The percentage inhibition is calculated as: […]
RLU (trigger/veh): Relative lumescent signal determined in presence of vehicle and trigger
RLU (test compound): Relative luminescent signal determined in presence of test compounds)
PIN values are plotted for compounds tested in dose-response and IC50 values are derived using LIMS Software applying non-linear regression (sigmoidal) curve fitting. The data are expressed as the average IC50 from different experiments.

[2] = tested on: IL-12 activation of STAT4 in NK-92 cells; experiment: IL-12 activation of STAT4 in NK-92 cells using AphaLISA SureFire technology; format: cell-based; conditions: Homo sapiens, NK92; IL-12 activation of STAT4 in NK-92 cells, AlphaLISA SureFire; average IC50; read-out: IL12 pSTAT4 IC50
Summary of the method: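 NK-92 cells, starved of rhIL-2 overnight, were stimulated with rhIL-12 for 30 min at 37 °C with test compounds, then lysed. Phospho-STAT4 (Tyr693) was read by AlphaLISA SureFire. Percent inhibition versus the vehicle-plus-trigger signal was fitted by sigmoidal nonlinear regression to give IC50, averaged over experiments.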

[3] = biological target: T1, Recombinant human TYK2 catalytic domain (amino acids 871-1187) (Homo sapiens, UniProt P29597); experiment: TYK2 ADPglo kinase assay; format: biochemical; also: 12 µM ATP
T1 construct: catalytic domain (amino acids 871-1187)
T1 sequence (P29597 871-1187): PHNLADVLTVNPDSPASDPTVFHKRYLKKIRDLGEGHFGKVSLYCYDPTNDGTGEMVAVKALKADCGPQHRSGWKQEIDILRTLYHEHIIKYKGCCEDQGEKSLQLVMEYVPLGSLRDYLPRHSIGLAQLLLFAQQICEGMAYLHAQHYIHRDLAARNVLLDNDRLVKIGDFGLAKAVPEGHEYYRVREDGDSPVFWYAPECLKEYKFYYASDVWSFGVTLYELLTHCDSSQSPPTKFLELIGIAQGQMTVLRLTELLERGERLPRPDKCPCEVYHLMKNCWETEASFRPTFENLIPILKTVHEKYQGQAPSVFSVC
Experimental: After 120 min at room temperature, reactions were stopped and the remaining ATP is depleted by adding 5 μL/well of ADP Glo Reagent (Promega, catalog number V912B). After 40 min at room temperature, 10 μl Kinase Detection Reagent (Kinase Detection Substrate (Promega, catalog number V914B) dissolved in Kinase Detection Buffer (Promega, catalog number V913B)) is added to convert ADP to ATP and to measure this newly synthesized ATP in a luciferase/luciferin reaction. Readout is performed after 30 min incubation at room temperature using the Envision. Kinase activity is calculated by subtracting the relative light units (RLU) obtained in the presence of a positive control inhibitor (10 μM staurosporine) from the RLU obtained in the presence of vehicle. The ability of a test compound to inhibit this activity (or percentage inhibition) is determined as:
RLU test compound=RLU determined for sample with test compound present
RLU control=RLU determined for sample with positive control inhibitor
RLU vehicle=RLU determined in the presence of vehicle
Dose dilution series were prepared for the compounds enabling the testing of dose-response effects in the TYK2 assay and the calculation of the IC50 for the compound. Each compound is routinely tested at concentration of 20 μM followed by a 1/5 serial dilution, 10 points in a final concentration of 1% DMSO. […] The data are expressed as the average IC50 from the assays.

IC50 [1] [µM] | IC50 [2] [µM] | IC50 [3] [µM] | Compound
0.539 | 0.111 | – | Cc1cc(C(F)(F)F)ncc1Oc1cc(Nc2cc(N)ncn2)c2ncn(C)c2n1 [Compound 1, N-[3-Methyl-5-(4-methyl-6-trifluoromethyl-pyridin-3-yloxy)-3H-imidazo[4,5-b]pyridin-7-yl]-pyrimidine-4,6-diamine]
0.201 | 0.0254 | – | CC(C)C(Nc1cc(Nc2cc(N)ncn2)c2ncn(C)c2n1)C(F)(F)F (stereo not drawn) [Compound 93, N7-(6-aminopyrimidin-4-yl)-3-methyl-N5-[2-methyl-1-(trifluoromethyl)propyl)imidazo[4,5-b]pyridine-5,7-diamine]
0.0901 | 0.022 | 0.00011 | Cc1cc(C#N)ncc1N(c1cc(Nc2cc(N)ncn2)c2ncn(C)c2n1)C1CC1 [Compound 88, 5-[[7-[(6-aminopyrimidin-4-yl)amino]-3-methyl-imidazo[4,5-b]pyridin-5-yl]-cyclopropyl-amino]-4-methyl-pyridine-2-carbonitrile]
0.282 | – | 0.00058 | Cn1cnc2c(Nc3ccc(S(C)(=O)=O)cn3)cc(NC(C3CC3)C(F)(F)F)nc21 (stereo not drawn) [Compound 92, N5-(1-cyclopropyl-2,2,2-trifluoro-ethyl)-3-methyl-N7-(5-methylsulfonyl-2-pyridyl)imidazo[4,5-b]pyridine-5,7-diamine]
0.204 | 0.0428 | – | Cc1cc(C#N)ncc1Oc1cc(Nc2ccc(S(=O)(=O)C3CC3)cc2)c2ncn(C)c2n1 [Compound 69, 5-[7-(4-cyclopropylsulfonylanilino)-3-methyl-imidazo[4,5-b]pyridin-5-yl]oxy-4-methyl-pyridine-2-carbonitrile]
1.44 | 0.122 | – | Cc1cc(C#N)ncc1Oc1cc(Nc2ccc(S(=O)(=O)C(F)F)cc2)c2ncn(C)c2n1 [Compound 68, 5-[7-[4-(difluoromethylsulfonyl)anilino]-3-methyl-imidazo[4,5-b]pyridin-5-yl]oxy-4-methyl-pyridine-2-carbonitrile]
0.233 | 0.0541 | – | Cc1cc(C#N)ncc1Nc1cc(Nc2ccc(C(=O)N(C)C)cn2)c2ncn(C)c2n1 [Compound 67, 6-[[5-[(6-cyano-4-methyl-3-pyridyl)amino]-3-methyl-imidazo[4,5-b]pyridin-7-yl]amino]-N,N-dimethyl-pyridine-3-carboxamide]

From US11564923B2, “Compounds and pharmaceutical compositions thereof for the treatment of inflammatory disorders” (Galapagos NV, priority 2017, dated 2023)
